The text below walks through data of article PMC7898822, “RNA‐PROTACs: Degraders of RNA‐Binding Proteins” (Angewandte Chemie (International Ed. in English), 2020).

Each structure is given as a SMILES string.

The target in one assay is T1, Lin28_ZKD (Homo sapiens, UniProt Q9H9Z2).
T1 construct: construct encoding amino acids 124–186 of human Lin28; His6; made in house; host or cells: Escherichia coli BL21 (DE3) Codon+ (RIL)
T1 sequence (Q9H9Z2 124-186): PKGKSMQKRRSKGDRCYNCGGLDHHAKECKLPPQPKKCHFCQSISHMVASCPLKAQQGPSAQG
Kind of assay: Fluorescence polarization competition assay (displacement of let7FAM from Lin28_ZKD). The format is binding. The following applies: competition FP, conjugate vs parent. The procedure: Fluorescence Polarization Assay. Fluorescence polarization titration assay was carried out by titrating Lin28_ZKD protein into FAM-labeled PreE-let-7 at a 10 nM final concentration and buffer (10 mM HEPES, 150 mM NaCl, 10 µM ZiCl2, pH 7,4). The assay plate was briefly vortexed, and air bubbles were removed by spinning at 1000 rpm. The fluorescence anisotropy was measured on a Spectra Max Paradigm multimode plate reader (Molecular Devices). The fluorescence polarization competition […]
preE-let-7. The concentration of Lin28_ ZKD is kept at 40 nM, a value in the range of the dissociation constant of Lin28_ZKD and preE-let-7 determined through fluorescence polarization titration assay, whereas preE-let-7 concentration is kept constant at 10 nM. FP competitive binding assays were performed on 384-well plates (#3575, Corning) with a total well volume of 10 µL.
Fluorescence polarization readings were transferred into Prism 7.0 (GraphPad). All fluorescence polarization assays were repeated at least three times and the anisotropy values fitted using GraphPad Prism software using 1:1 binding/inhibition model. […]
On the technique in general: Polarisation of emitted light reports the rotation of a fluorescent probe.

In the next assay the test system is Lin28A. Kind of assay: Western blot of Lin28A in K562 cells. Format: cell-based, human. The source says:
Finally, we tested RNA‐PROTACs for their ability to degrade their target in two cell lines: the embryonic NT2/D1 cell line, which expresses high levels of Lin28A, ^[13a] and K562 cells which express Lin28A and Lin28B. […] Finally, we co‐treated K562 cells with ORN3P1 and MG132, a reversible inhibitor of the 26S proteasome. […] In order to explore the versatility of RNA‐PROTACs with non peptide‐based VHL ligands, we conjugated small‐molecule VH032 ^[38] to ORN3 via an amino linker to yield ORN3VH032 (Figure S1). […]
A general note: A western blot detects proteins with antibodies after separation by electrophoresis.

Assay [1] deals with Lin28B. Kind of assay: Western blot of Lin28B in K562 cells. The conditions noted are these: 48 h. Format: cell-based, human. From the text: Finally, we tested RNA‐PROTACs for their ability to degrade their target in two cell lines: the embryonic NT2/D1 cell line, which expresses high levels of Lin28A, ^[13a] and K562 cells which express Lin28A and Lin28B. […] Suppression of the target was not quantitative, as is often observed from testing PROTAC reagents without an optimization of the targeting ligand, the linker and the E3 system. Furthermore, there was no statistical difference in the activity of the 7‐mer and 11‐mer reagents. […] The reagents had no discernible effect on cell toxicity (Figure S11). […] Finally, we co‐treated K562 cells with ORN3P1 and MG132, a reversible inhibitor of the 26S proteasome. […]
oligonucleotides ([…]) into 15N-labeled Lin28-ZnF12 in 10 mM HEPES pH 7.0, 1.5 mM β-mercaptoethanol, 0.15 mM ZnCl2 and monitored by 1H-15N-HSQC at 303K.
Fluorescence Polarization Assay. Fluorescence polarization titration assay was carried out by titrating Lin28_ZKD protein into FAM-labeled PreE-let-7 at a 10 nM final concentration and buffer (10 mM HEPES, 150 mM NaCl, 10 µM ZiCl2, pH 7,4). […] The fluorescence anisotropy was measured on a Spectra Max Paradigm multimode plate reader (Molecular Devices). The fluorescence polarization competition assay was carried out in a similar fashion, except compounds were titrated into buffer containing Lin28_ZKD and FAM-labeled preE-let-7. […]

Assay [2] concerns Lin28B. Kind of assay: Confocal microscopy, LIN28B level in K562 cells. Format: cell-based, human. The conditions noted are these: FAM labelled ORN3P1, 1 µM, 24 h.

On to `CC[C@H](C)[C@H](NC(=O)[C@H](Cc1ccc(O)cc1)NC(=O)[C@@H]1C[C@@H](O)CN1C(=O)[C@H](C)NC(=O)[C@H](CC(C)C)NC(=O)CCCCCNC(=O)[C@@H](N)CSC1CC(=O)N(CCOP(=O)(S)OC[C@H]2O[C@@H](n3cnc4c(N)ncnc43)[C@H](OCCOC)[C@@H]2OP(=O)(S)OC[C@H]2O[C@@H](n3cnc4c(=O)[nH]c(N)nc43)[C@H](OCCOC)[C@@H]2OP(=O)(S)OC[C@H]2O[C@@H](n3cnc4c(=O)[nH]c(N)nc43)[C@H](OCCOC)[C@@H]2OP(=O)(S)OC[C@H]2O[C@@H](n3cnc4c(N)ncnc43)[C@H](OCCOC)[C@@H]2OP(=O)(S)OC[C@H]2O[C@@H](n3cnc4c(=O)[nH]c(N)nc43)[C@H](OCCOC)[C@@H]2OP(=O)(S)OC[C@H]2O[C@@H](n3cnc4c(N)ncnc43)[C@H](OCCOC)[C@@H]2OP(=O)(S)OC[C@H]2O[C@@H](n3cc(C)c(=O)[nH]c3=O)[C@H](OCCOC)[C@@H]2O)C1=O)C(=O)O` (some centres unmarked) [ORN3P1], for which the “competition for Lin28_ZKD relative to parent unconjugated oligonucleotides” value on Lin28_ZKD is “competed slightly more strongly”. In addition, the “Lin28A suppression with MG132 co-treatment” value in the assay on Lin28A (K562 cells co-treated with 100 nM MG132, 48 h) is reported as “largely attenuated Lin28A suppression”. In the assay with Lin28A (K562 cells, highest concentration, 48 h, western blot, three independent experiments), the “suppression of Lin28A” value was found to be 50%. Moreover, in the assay with Lin28B [1], the “effect on Lin28B” value is “little effect on Lin28B”. The “LIN28B by confocal microscopy” value in the assay on Lin28B [2] is listed as “relatively unaffected”.
